Earlier results as cited in US20240269083A1, “PROLONGED-RELEASE PHARMACEUTICAL COMPOSITION FOR ORAL ADMINISTRATION OF SULTIAME” (ADVICENNE, priority 2021, published 2024).

Test system: erythrocytes
Settings: single doses of Ospolot, fasting, healthy subjects

affinity for erythrocytes: very strong affinity for erythrocytes
Compound: NS(=O)(=O)c1ccc(N2CCCCS2(=O)=O)cc1 [sultiame, Sultiame]
